Assay results: ChEMBL document CHEMBL2073983, “Characterization of the mouse bile salt export pump overexpressed in the baculovirus system” (Hepatology, 2001)

What was measured:
Format in all cases: functional, cell membranes, Membrane vesicle
[1] = target: T1, Bile salt export pump (Bsep) (Mus musculus, UniProt Q9QY30); assay: TP_TRANSPORTER: inhibition of Taurochenodeoxycholate-stimulated ATPase activity (Rifamycin SV: 100 uM) in membrane vesicles from Bsep-expressing Sf9 cells; set-up: scale not given: the % may be the effect or the level left; details: probe Taurochenodeoxycholate, read-out: Activity
T1 sequence (Q9QY30 whole entry): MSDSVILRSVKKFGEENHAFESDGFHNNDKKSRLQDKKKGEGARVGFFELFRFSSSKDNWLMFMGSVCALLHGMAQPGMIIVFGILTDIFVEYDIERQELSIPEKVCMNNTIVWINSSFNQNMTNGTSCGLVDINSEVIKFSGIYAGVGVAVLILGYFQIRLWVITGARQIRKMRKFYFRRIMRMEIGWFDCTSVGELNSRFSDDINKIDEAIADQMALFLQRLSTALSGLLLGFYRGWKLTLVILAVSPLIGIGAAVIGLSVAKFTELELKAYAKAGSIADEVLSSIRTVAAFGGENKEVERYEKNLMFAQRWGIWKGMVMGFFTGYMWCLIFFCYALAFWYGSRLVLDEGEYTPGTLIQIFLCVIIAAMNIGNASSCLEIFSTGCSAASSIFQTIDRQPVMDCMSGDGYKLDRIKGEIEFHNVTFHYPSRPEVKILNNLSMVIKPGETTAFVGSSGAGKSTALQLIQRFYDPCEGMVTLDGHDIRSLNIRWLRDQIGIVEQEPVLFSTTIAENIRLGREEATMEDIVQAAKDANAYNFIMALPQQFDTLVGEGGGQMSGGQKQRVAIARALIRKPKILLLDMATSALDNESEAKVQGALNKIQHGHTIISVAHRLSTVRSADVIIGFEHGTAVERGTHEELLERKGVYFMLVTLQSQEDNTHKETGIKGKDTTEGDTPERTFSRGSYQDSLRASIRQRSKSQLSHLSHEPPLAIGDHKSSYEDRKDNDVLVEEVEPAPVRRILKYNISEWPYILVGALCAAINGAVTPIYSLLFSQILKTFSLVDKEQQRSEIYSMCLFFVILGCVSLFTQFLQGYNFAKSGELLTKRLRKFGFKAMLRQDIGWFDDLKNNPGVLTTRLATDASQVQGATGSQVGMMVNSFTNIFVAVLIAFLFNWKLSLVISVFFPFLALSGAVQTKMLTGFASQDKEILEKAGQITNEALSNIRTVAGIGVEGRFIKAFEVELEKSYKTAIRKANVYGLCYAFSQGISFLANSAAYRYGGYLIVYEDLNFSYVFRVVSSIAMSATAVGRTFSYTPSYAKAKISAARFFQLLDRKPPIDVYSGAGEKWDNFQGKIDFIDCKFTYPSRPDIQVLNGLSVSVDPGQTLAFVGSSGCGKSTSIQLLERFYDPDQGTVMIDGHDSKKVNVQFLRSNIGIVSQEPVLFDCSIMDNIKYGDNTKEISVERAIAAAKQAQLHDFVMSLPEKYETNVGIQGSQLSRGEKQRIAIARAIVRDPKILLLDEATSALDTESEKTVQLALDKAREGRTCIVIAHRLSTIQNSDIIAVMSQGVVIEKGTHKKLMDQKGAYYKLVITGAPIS

[2] = target: T1, Bile salt export pump (Bsep); assay: TP_TRANSPORTER: inhibition of Taurochenodeoxycholate-stimulated ATPase activity (Glibenclamide: 60 uM) in membrane vesicles from Bsep-expressing Sf9 cells; set-up: scale not given: the % may be the effect or the level left; details: probe Taurochenodeoxycholate, read-out: Activity
[3] = substrate: C[C@H](CCC(=O)NCCS(=O)(=O)O)[C@H]1CC[C@H]2[C@@H]3[C@H](O)C[C@@H]4C[C@H](O)CC[C@]4(C)[C@H]3CC[C@]12C; assay: TP_TRANSPORTER: uptake in membrane vesicles isolated from Bsep-expressing Sf9 cells
[4] = substrate: C[C@H](CCC(=O)NCC(=O)O)[C@H]1CC[C@H]2[C@@H]3[C@H](O)C[C@@H]4C[C@H](O)CC[C@]4(C)[C@H]3C[C@H](O)[C@]12C; assay: TP_TRANSPORTER: uptake in membrane vesicles from Bsep-expressing Sf9 cells

With `CO[C@H]1/C=C/O[C@@]2(C)Oc3c(C)c(O)c4c(O)c(cc(O)c4c3C2=O)NC(=O)/C(C)=C\C=C\[C@H](C)[C@H](O)[C@@H](C)[C@@H](O)[C@@H](C)[C@H](OC(C)=O)[C@@H]1C` [RIFAMYCIN] the activity at 100 µM [1] was 29.8%.

Molecule `COc1ccc(Cl)cc1C(=O)NCCc1ccc(S(=O)(=O)NC(=O)NC2CCCCC2)cc1` [GLYBURIDE] has an activity at 60 µM [2] of 47.2%.

B1: Bile salt export pump (Mus musculus) (protein)
chain: MSDSVILRSVKKFGEENHAFESDGFHNNDKKSRLQDKKKGEGARVGFFELFRFSSSKDNWLMFMGSVCALLHGMAQPGMIIVFGILTDIFVEYDIERQELSIPEKVCMNNTIVWINSSFNQNMTNGTSCGLVDINSEVIKFSGIYAGVGVAVLILGYFQIRLWVITGARQIRKMRKFYFRRIMRMEIGWFDCTSVGELNSRFSDDINKIDEAIADQMALFLQRLSTALSGLLLGFYRGWKLTLVILAVSPLIGIGAAVIGLSVAKFTELELKAYAKAGSIADEVLSSIRTVAAFGGENKEVERYEKNLMFAQRWGIWKGMVMGFFTGYMWCLIFFCYALAFWYGSRLVLDEGEYTPGTLIQIFLCVIIAAMNIGNASSCLEIFSTGCSAASSIFQTIDRQPVMDCMSGDGYKLDRIKGEIEFHNVTFHYPSRPEVKILNNLSMVIKPGETTAFVGSSGAGKSTALQLIQRFYDPCEGMVTLDGHDIRSLNIRWLRDQIGIVEQEPVLFSTTIAENIRLGREEATMEDIVQAAKDANAYNFIMALPQQFDTLVGEGGGQMSGGQKQRVAIARALIRKPKILLLDMATSALDNESEAKVQGALNKIQHGHTIISVAHRLSTVRSADVIIGFEHGTAVERGTHEELLERKGVYFMLVTLQSQEDNTHKETGIKGKDTTEGDTPERTFSRGSYQDSLRASIRQRSKSQLSHLSHEPPLAIGDHKSSYEDRKDNDVLVEEVEPAPVRRILKYNISEWPYILVGALCAAINGAVTPIYSLLFSQILKTFSLVDKEQQRSEIYSMCLFFVILGCVSLFTQFLQGYNFAKSGELLTKRLRKFGFKAMLRQDIGWFDDLKNNPGVLTTRLATDASQVQGATGSQVGMMVNSFTNIFVAVLIAFLFNWKLSLVISVFFPFLALSGAVQTKMLTGFASQDKEILEKAGQITNEALSNIRTVAGIGVEGRFIKAFEVELEKSYKTAIRKANVYGLCYAFSQGISFLANSAAYRYGGYLIVYEDLNFSYVFRVVSSIAMSATAVGRTFSYTPSYAKAKISAARFFQLLDRKPPIDVYSGAGEKWDNFQGKIDFIDCKFTYPSRPDIQVLNGLSVSVDPGQTLAFVGSSGCGKSTSIQLLERFYDPDQGTVMIDGHDSKKVNVQFLRSNIGIVSQEPVLFDCSIMDNIKYGDNTKEISVERAIAAAKQAQLHDFVMSLPEKYETNVGIQGSQLSRGEKQRIAIARAIVRDPKILLLDEATSALDTESEKTVQLALDKAREGRTCIVIAHRLSTIQNSDIIAVMSQGVVIEKGTHKKLMDQKGAYYKLVITGAPIS
B1 was tested, and the Km [3] was 5.7 µM and the Km [4] was 19.5 µM.
